Measured values from ChEMBL document CHEMBL6096723, “Discovery of novel capsaicin analogs as TRPV1 inhibitors for the treatment of idiopathic pulmonary fibrosis” (Eur J Med Chem, 2025).
The source made the active and inactive calls. The rule behind the calls is not given here.

How the values were obtained:
[1] = tested on: L929; assay: Anti-migratory activity in mouse L929 cells assessed as inhibition of TGFbeta1-induced migration at 10 uM measured after 24 hrs by Wound healing assay; type: functional, cell-based
[2] = tested on: Mus musculus; assay: Anti-pulmonary fibrotic activity against bleomycin induced pulmonary fibrosis mouse model assessed as reduction in inflammatory cell infiltration at 10 to 20 mg/kg, ip administered every alternative day for 8 to 21 days after modeling; type: functional, organism-based; conditions: dose 10-20 mg/kg, time 8-21 day
[3] = tested on: NIH3T3; assay: Antifibrotic activity in mouse NIH3T3 cells assessed as decrease in TRPV1 expression measured after 48 hrs incubation by Western blotting analysis; type: functional, cell-based; conditions: dose 1-10 µM
[4] = Tmax in Sprague-Dawley rat at 50 mg/kg, po measured upto 4 hrs by UPLC-MS/MS analysis; type: ADME, organism-based; conditions: in vivo
[5] = tested on: NIH3T3; assay: Antifibrotic activity in mouse NIH3T3 cells assessed as decrease in TGFbeta-induced Collagen type 1 expression measured after 48 hrs incubation by Western blotting analysis; type: functional, cell-based; conditions: dose 1-10 µM
[6] = tested on: NIH3T3; assay: Inhibition of TGFbeta-induced Smad3 phosphorylation in mouse NIH3T3 cells by Western blot analysis; type: functional, cell-based; conditions: dose 1-10 µM
[7] = Acute toxicity in Kunming male mouse assessed as Urea level at 180 mg/kg, ip measured after 14 days (reference value: 6.54 mmol/L); type: organism-based; conditions: in vivo, 336 h, time 14 day
[8] = Clearance in Sprague-Dawley rat at 50 mg/kg, iv measured upto 4 hrs by UPLC-MS/MS analysis; type: ADME, organism-based; conditions: in vivo
[9] = tested on: Mus musculus; assay: Anti-pulmonary fibrotic activity against bleomycin induced pulmonary fibrosis mouse model assessed as reduction in alveolar structure at 10 to 20 mg/kg, ip administered every alternative day for 8 to 21 days after modeling; type: functional, organism-based; conditions: dose 10-20 mg/kg, time 8-21 day
[10] = Apparent volume of distribution in Sprague-Dawley rat at 50 mg/kg, po measured upto 4 hrs by UPLC-MS/MS analysis; type: ADME, organism-based; conditions: in vivo
[11] = MRT(0 to t) in Sprague-Dawley rat at 50 mg/kg, iv measured upto 4 hrs by UPLC-MS/MS analysis; type: ADME, organism-based; conditions: in vivo
[12] = Acute toxicity in Kunming male mouse assessed as Alanine aminotransferase (ALT) level at 180 mg/kg, ip measured after 14 days (reference value: 55.3 U/L); type: organism-based; conditions: in vivo, 336 h, time 14 day
[13] = Acute toxicity in Kunming male mouse assessed as Creatinine (CREA) level at 180 mg/kg, ip measured after 14 days (reference value: 12.4 micromol/L); type: organism-based; conditions: in vivo, 336 h, time 14 day
[14] = AUC(0 to infinity) in Sprague-Dawley rat at 50 mg/kg, ip measured upto 4 hrs by UPLC-MS/MS analysis; type: ADME, organism-based; conditions: in vivo
[15] = Acute toxicity in Kunming male mouse assessed as Total bilirubin (T-Bil) level at 180 mg/kg, ip measured after 14 days (reference value: 12.99 micromol/L); type: organism-based; conditions: in vivo, 336 h, time 14 day
[16] = tested on: Rattus norvegicus; assay: Cz in Sprague-Dawley rat at 50 mg/kg, po measured upto 4 hrs by UPLC-MS/MS analysis; type: ADME, organism-based; conditions: in vivo
[17] = tested on: NIH3T3; assay: Anti-fibrotic activity in mouse NIH3T3 cells assessed as inhibition of TGFbeta-induced total collagen production measured after 48 hrs by Sirius Red Collagen Detection Kit relative to control; type: functional, cell-based; conditions: NIH3T3, 48 h
[18] = AUMC(0 to t) in Sprague-Dawley rat at 50 mg/kg, iv measured upto 4 hrs by UPLC-MS/MS analysis; type: ADME, organism-based; conditions: in vivo
[19] = AUMC(0 to infinity) in Sprague-Dawley rat at 50 mg/kg, ip measured upto 4 hrs by UPLC-MS/MS analysis; type: ADME, organism-based; conditions: in vivo
[20] = tested on: Mus musculus; assay: Anti-fibrotic activity against bleomycin-induced pulmonary fibrosis mouse model assessed as increase in lung compliance at 10 to 20 mg/kg, ip administered every alternative day for 8 to 21 days after modeling; type: functional, organism-based; conditions: dose 10-20 mg/kg, time 8-21 day
[21] = tested on: NIH3T3; assay: Inhibition of TGFbeta-induced ERK1/2 phosphorylation in mouse NIH3T3 cells at 1 to 10 uM by Western blot analysis; type: functional, cell-based; conditions: dose 1-10 µM
[22] = Half life in Sprague-Dawley rat at 50 mg/kg, po measured upto 4 hrs by UPLC-MS/MS analysis; type: ADME, organism-based; conditions: in vivo
[23] = Toxicity in bleomycin-induced pulmonary fibrosis mouse model assessed as body weight change at 10 to 20 mg/kg, ip administered every alternative day for 8 to 21 days after modeling; type: organism-based; conditions: in vivo, dose lower 10 mg/kg, time lower 8 day, dose upper 20 mg/kg, time upper 21 day
[24] = Acute toxicity in Kunming male mouse assessed as Uric acid (UA) level at 180 mg/kg, ip measured after 14 days (reference value: 264.8 micromol/L); type: organism-based; conditions: in vivo, 336 h, time 14 day
[25] = Oral bioavailability in Sprague-Dawley rat at 50 mg/kg measured upto 4 hrs by UPLC-MS/MS analysis; type: ADME, organism-based; conditions: in vivo

With `O=C(/C=C/c1ccc(O)c(O)c1)CCCCc1ccccc1` as the molecule, how does the Activity [1] read?
The Activity was “Active”.

What about the Activity [2] of the same molecule?
The Activity was “Active”.

And the Activity [3]?
Its Activity is “Dose-dependent-effect; Compound More Potent Than Nintedanib”.

And the Tmax [4]?
Its Tmax is 10.2 min.

What about the Activity [5] of the same molecule?
The Activity was “Dose-dependent-effect; Compound More Potent Than Nintedanib”.

And the inhibition [6]?
Its inhibition is “Dose-dependent-effect; Compound Showed Superior Inhibition Effect Than Nintedanib”.

What about the Activity [7] of the same molecule?
The Activity was 9.56 mmol/L.

What about the CL [8] of the same molecule?
The CL was 125 mL/min/kg.

What about the Activity [9] of the same molecule?
The Activity was “Active”.

What about the Vz [10] of the same molecule?
The Vz was 237.78 L/kg.

And the MRT last at 4 h [11]?
The MRT last at 4 h was 44.6 min.

And the Activity [12]?
Its Activity is 34.5 U/L.

What about the Activity [13] of the same molecule?
The Activity was 15.3 µmol/L.

What about the AUC [14] of the same molecule?
The AUC was 1095.38 ng·h/mL.

And the Activity [15]?
Its Activity is 10.43 µmol/L.

What about the Cz [16] of the same molecule?
Its Cz is 2.54 µg/L.

And the IC50 [17]?
The IC50 was 510 nM.

What about the AUMCt [18] of the same molecule?
The AUMCt was 1969.254 ug/L.hr.

What about the AUMC [19] of the same molecule?
The AUMC was 628.01 ug/L.hr.

What about the Activity [20] of the same molecule?
The Activity was “Active”.

What about the inhibition [21] of the same molecule?
The inhibition was “Active”.

What about the half-life [22] of the same molecule?
The half-life was 51 min.

And the Activity [23]?
Its Activity is “Non-toxic”.

What about the Activity [24] of the same molecule?
Its Activity is 325.4 µmol/L.

What about the bioavailability [25] of the same molecule?
The bioavailability was 6.5%.
